According to US20030171345A1 (priority 2001, published 2003):
Where two headings read alike, the source gives them in different places.

Columns and labels:
[1] = tested on: estrogen receptor preparations from rat uteri; assay: Competitive 3H-estradiol binding, rat uterus cytosol estrogen receptor; conditions: 3H-estradiol as ligand, estradiol = 100
[2] = tested on: hERβ; assay: Relative binding affinity to hERβ (Kuiper et al.); parameters: species or system human; conditions: quotient of RBA to ERβ and ERα
Source text: In this case, it is assumed that ERβ predominates in the rat prostates over ERα, and ERα predominates in rat uteri over ERβ.

[3] = tested on: hERβ; conditions: cited from earlier work
[4] = tested on: estrogen receptor preparations from rat prostates; assay: Competitive 3H-estradiol binding, rat prostate cytosol estrogen receptor; conditions: for Rat prost. ER(RBA): 3H-estradiol as ligand, rat prostate cytosol, estradiol = 100
[5] = relative binding affinity, estradiol = 100

Compound	Rat uterus ER(RBA) [1]	ERβ/ERα [2]	hERβ RBA [3]	Rat prost. ER(RBA) [4]	prost. ER/uterus ER ([4]; ratio of the binding to prostate and uterus receptors)	hERβ RBA [3, 5]
C[C@]12CCC(O)CC1=CC[C@@H]1[C@@H]2CC[C@]2(C)C(O)CC[C@@H]12 (stereo partly drawn) [5-Androstene-diol]	0.1	3	17	5	50	
C[C@]12CC[C@@H]3c4ccc(O)cc4CC[C@H]3[C@@H]1C[C@@H](O)[C@@H]2O [Estriol]						21
Estradiol	100			100		100
